Assay results: patent US9469804B2, “Foaming composition with wettability modifying and corrosion inhibitory properties for high temperature and ultra-high salinity” (INSTITUTO MEXICANO DEL PETROLEO, priority 2012, dated 2016)

Experiments:
[1] = Phase stability evaluation in brines with ultra-high salinity (turbidity); type: physicochemical; details: 0.2% by weight, room temperature, pass limit 30 NTU
Method: A phase stability study was carried out for the supramolecular complexes object of the present invention, described in Examples 19, 20 and 21 and whose basic structural formula is indicated in (36).
All the products were assessed at concentration of 0.2% by weight, dissolved in different waters with high salinity and concentrations of divalent ions, through the measurement of turbidity in NTU (Nephelometric Turbidity Units). This value indicates how turbid or clear a solution/chemical product is and the higher the value, the more turbid the solution is.
The measurement is based on applying the nephelometric technique by using a photometer. The standard method is based on the comparison of the amount of light dispersed by the colloidal particles present in a sample of water with the intensity of the light emerging across the same sample.
It is worth mentioning that in order to pass this test, a value 30 NTU should not be exceeded.

[2] = Foaming test at atmospheric pressure (foam stability); type: physicochemical; details: brine 1, 70°C, 0.2% by weight, nitrogen

coco-amido-propyl-hydroxysultaine [Coco amido-propyl hydroxysultaine]
TURBIDITY ([1]; BRINE 1 (salinity as NaCl 32803.9, hardness 6420 mg/L)): 1.09 NTU
TURBIDITY ([1]; BRINE 2 (salinity as NaCl 152974.9, hardness 35200 mg/L)): 1.68 NTU
TURBIDITY ([1]; BRINE 3 (salinity as NaCl 253859.1, hardness 87700 mg/L)): 3.9 NTU
time in which the minimum foam stability of 30% is reached [2]: 60 min
